Results: PubChem BioAssay (NCI)
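Assay format: 96-well plates, 48-hour exposure. TGI: concentration producing complete growth inhibition.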

Tests used:
Assay in all cases: growth of human tumour cells (NCI), 48 h
786-0 renal = test system: 786-0 renal
A549 NSCLC = test system: A549 NSCLC
ACHN renal = test system: ACHN renal
CAKI-1 renal = test system: CAKI-1 renal
CCRF-CEM leukemia = test system: CCRF-CEM leukemia
COLO 205 colon = test system: COLO 205 colon
DLD-1 colon = test system: DLD-1 colon
DMS 114 small cell lung = test system: DMS 114 small cell lung
DMS 273 small cell lung = test system: DMS 273 small cell lung
EKVX NSCLC = test system: EKVX NSCLC
HCC-2998 colon = test system: HCC-2998 colon
HCT-116 colon = test system: HCT-116 colon
HCT-15 colon = test system: HCT-15 colon
HL-60(TB) leukemia = test system: HL-60(TB) leukemia
HOP-18 NSCLC = test system: HOP-18 NSCLC
HOP-62 NSCLC = test system: HOP-62 NSCLC
HOP-92 NSCLC = test system: HOP-92 NSCLC
HT29 colon = test system: HT29 colon
IGROV1 ovarian = test system: IGROV1 ovarian
K-562 leukemia = test system: K-562 leukemia
KM12 colon = test system: KM12 colon
KM20L2 colon = test system: KM20L2 colon
LOX IMVI melanoma = test system: LOX IMVI melanoma
LXFL 529 NSCLC = test system: LXFL 529 NSCLC
M14 melanoma = test system: M14 melanoma
M19-MEL melanoma = test system: M19-MEL melanoma
MALME-3M melanoma = test system: MALME-3M melanoma
MOLT-4 leukemia = test system: MOLT-4 leukemia
NCI-H226 lung = test system: NCI-H226 lung
NCI-H23 lung = test system: NCI-H23 lung
NCI-H460 lung = test system: NCI-H460 lung
OVCAR-3 ovarian = test system: OVCAR-3 ovarian
OVCAR-4 ovarian = test system: OVCAR-4 ovarian
OVCAR-5 ovarian = test system: OVCAR-5 ovarian
OVCAR-8 ovarian = test system: OVCAR-8 ovarian
RPMI-8226 leukemia = test system: RPMI-8226 leukemia
RXF 393 renal = test system: RXF 393 renal
RXF-631 renal = test system: RXF-631 renal
SF-268 CNS = test system: SF-268 CNS
SF-295 CNS = test system: SF-295 CNS
SF-539 CNS = test system: SF-539 CNS
SK-MEL-2 melanoma = test system: SK-MEL-2 melanoma
SK-MEL-28 melanoma = test system: SK-MEL-28 melanoma
SK-MEL-5 melanoma = test system: SK-MEL-5 melanoma
SK-OV-3 ovarian = test system: SK-OV-3 ovarian
SN12C renal = test system: SN12C renal
SNB-19 CNS = test system: SNB-19 CNS
SNB-75 CNS = test system: SNB-75 CNS
SNB-78 CNS = test system: SNB-78 CNS
SR leukemia = test system: SR leukemia
SW-620 colon = test system: SW-620 colon
TK-10 renal = test system: TK-10 renal
U251 CNS = test system: U251 CNS
UACC-257 melanoma = test system: UACC-257 melanoma
UACC-62 melanoma = test system: UACC-62 melanoma
UO-31 renal = test system: UO-31 renal
XF 498 CNS = test system: XF 498 CNS
A498 renal = test system: A498 renal
NCI-H522 lung = test system: NCI-H522 lung

Measured: TGI

COC(=O)c1ccc(CS(=O)(=O)c2ccccc2)cc1
not listed: A498 renal | NCI-H522 lung
> 100 µM: all other assays above

CC12CCC(=O)N1c1cc([N+](=O)[O-])ccc1N2 (stereo not given)
not listed: CAKI-1 renal | HCC-2998 colon | HOP-92 NSCLC | NCI-H460 lung | OVCAR-5 ovarian | TK-10 renal
> 100 µM: all other assays above
